# From patent US20250170082A1, “HPDL INHIBITORS AND USES THEREOF” (NEW YORK UNIVERSITY, priority 2022, published 2025)
# Entries after “also recorded” stand apart in the source; their conditions may differ.
# What was measured:
# [1] = tested on: MIAPACA2 and PATU-8902 cells; assay: 3D growth assay (CyQUANT) in MIAPACA2 and PATU-8902 cells; assay type: cell-based; settings: 3 days
# Experimental: (§1) 2,500 cells were seeded into a low-attachment 96-well plate containing DMEM+10% dialysed FBS and 3% Matrigel. […] To measure 3D growth with the CyQUANT Cell Proliferation Assay kit, plates were frozen at −80° C., thawed at room temperature, and equal volumes of 2× CyQUANT reagent+lysis buffer was added to the wells. As a control, wells containing medium and no cells were used as blanks. CyQUANT measurements were performed as described in the manufacturer's instructions.
# as §1, with “2×CyQUANT” for “2× CyQUANT”, “Wells” for “As a control, wells”, “blanks.” for “blanks. CyQUANT measurements were performed as described in the manufacturer's instructions.”
# [2] = tested on: MIAPACA2 and PATU8902 xenografts; assay: PDAC pancreas orthotopic xenografts in athymic nude mice; assay type: in vivo
# Experimental: Pancreas orthotopic xenografts were established as follows. In brief, 6-week-old female immunocompromised athymic nude mice (CrTac:NCr-Foxnlnu) were orthotopically injected with tumor cells into the pancreas. Mice were anaesthetized with ketamine (120 mg kg−1) and xylazine (10 mg kg−1) before surgery. MIAPACA2 or PATU-8902 ([…]) were suspended in 20 μl of 50% growth factor-reduced Matrigel (BD Science), and injected into the pancreas. Mice were treated with buprenorphine every 12 h after surgery for 48 h. […] Both compounds were dissolved into mice water every day to avoid degradation. Mice were sacrificed when tumor development led to significant deterioration of their condition.
# [3] = tested on: C57BL/6 pups; assay: Pup survival after daily oral gavage; assay type: in vivo
# [4] = tested on: cells; assay: Cellular uptake of 4-HMA and incorporation into CoQ10; assay type: cell-based
# [5] = biological target: T1, human His-tagged HPDL (4-hydroxyphenylpyruvate dioxygenase-like), recombinant, from expiSF9 insect cells (Homo sapiens, UniProt Q96IR7); assay: Inhibition of HPDL activity: His-tagged HPDL incubated with HPPA at various inhibitor concentrations, 4HMA production followed by GC-MS; assay type: biochemical
# T1 construct: His tag; made in house; host or cells: expiSF9 insect cells (virus infection)
# T1 sequence (Q96IR7 1-371): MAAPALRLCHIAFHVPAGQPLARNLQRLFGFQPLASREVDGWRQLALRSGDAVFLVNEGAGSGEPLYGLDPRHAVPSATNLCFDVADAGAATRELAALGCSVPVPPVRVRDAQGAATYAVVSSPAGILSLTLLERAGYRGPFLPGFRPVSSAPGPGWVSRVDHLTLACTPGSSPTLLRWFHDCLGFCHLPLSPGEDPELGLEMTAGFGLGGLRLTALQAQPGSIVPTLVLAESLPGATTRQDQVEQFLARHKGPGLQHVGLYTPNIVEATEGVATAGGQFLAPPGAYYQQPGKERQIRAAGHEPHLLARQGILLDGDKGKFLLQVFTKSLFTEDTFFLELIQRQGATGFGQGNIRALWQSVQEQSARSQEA
# Text: The four curves in Panel (A) represent dose-response curves for, from left to right, ibuprofen, dopamine, montelukast, and methyldopa, respectively.
# A culture of expiSF9 cells (5×10^6 viable cells/mL and ≥90% viability) were infected with high-titer virus (human His-tagged HPDL).
# [6] = biological target: T2, HPDL (Homo sapiens, UniProt Q96IR7); assay: Fluorescence based thermal shift assay (FTS) on purified HPDL; assay type: binding; settings: 10 μM compound, 1 μM HPDL
# T2 construct: His tag; made in house; host or cells: expiSF9 insect cells (inferred: the only HPDL preparation described)
# T2 sequence (Q96IR7 1-371): T1 sequence (Q96IR7 1-371)
# Experimental: This experiment evaluates an FDA approved library of small molecules by thermal shift in order to identify binders of HPDL. Fluorescence based thermal shift assay (FTS) was conducted on Bio-Rad real time PCR detection system. A total of 20 μL/well solution was prepared containing 1 μM HPDL, 2× fluorescent dye (Applied Biosystems, Life Technologies) and small molecules at […] concentration in buffer (50 mM HEPES pH 7.5 and 20 μM FeSO4). The plate was heated at 1% of ramp rate (−1.5° C./min) from 25 to 95° C., and Rox was selected as reporter for detection of fluorescence intensity. The melting temperature was recorded for every compound and compared to the reference HPDL melting temperature.
# This experiment evaluates if COX inhibition is responsible for the decrease of cell growth in 3D. The ability of aspirin, another COX inhibitor, to bind HPDL was evaluated using thermal shift assay. Fluorescence based thermal shift assay (FTS) was conducted on Bio-Rad real time PCR detection system. […] The plate was heated at 1% of ramp rate (˜1.5° C./min) from 25 to 95° C., and Rox was selected as reporter for detection of fluorescence intensity. The melting temperature was recorded for every compound and compared to the reference HPDL melting temperature.
# [7] = tested on: MIAPACA2 cells; assay: 3D growth assay (CyQUANT) in MIAPACA2 cells, ibuprofen vs aspirin; assay type: cell-based; settings: 100 uM added daily, 3 days
# Experimental: (§2) This experiment evaluates if COX inhibition is responsible for the decrease of cell growth in 3D. The ability of aspirin, another COX inhibitor, to affect cell growth of HPDL-dependent cell lines in 3D was evaluated. 2,500 cells were seeded into a low-attachment 96-well plate containing DMEM+10% dialysed FBS and 3% Matrigel. […] To measure 3D growth with the CyQUANT Cell Proliferation Assay kit, plates were frozen at −80° C., thawed at room temperature, and equal volumes of 2× CyQUANT reagent+lysis buffer was added to the wells. Wells containing medium and no cells were used as blanks.
# [8] = biological target: T3, His-tagged HPDL (Homo sapiens, UniProt Q96IR7); settings: for compound amount at 50% activity level (rank among the four dose-response curves): FIG. 4(A) dose-response curves
# T3 sequence (Q96IR7 1-371): T1 sequence (Q96IR7 1-371)
# [9] = tested on: MIAPACA2 expressing control or HPDL sgRNA; assay: 3D growth assay in MIAPACA2 expressing control or HPDL sgRNA, with or without coHPDL; assay type: cell-based; settings: ibuprofen 100 uM added daily, 3 days
# Experimental: as §2, with “HPDL” for “COX”, “inhibition in cells” for “inhibition”, “The ability of aspirin, another COX inhibitor, to affect cell growth of HPDL-dependent cell lines in 3D was evaluated.” left out
smiles,measurement,setting,value
"O=C(O)C(O)c1ccc(O)cc1 (stereo not drawn) [4HMA, 4-hydroxymandelate]",rescue of ibuprofen-induced decrease of 3D cell growth,[1]; ibuprofen 100 uM and 4HMA 1 mM added daily,rescues ibuprofen-induced decreases cell growth in 3D
same,rescue of ibuprofen-induced decrease of xenograft growth,[2]; 4HMA 10 mg/kg with ibuprofen 100 mg/kg in drinking water,can rescue this decrease
same,rescue of ibuprofen-induced lethality,[3]; 4HMA 10 mg/kg with ibuprofen 200 mg/kg daily oral gavage,rescues ibuprofen-induced lethality in pups
same,uptake by cells and incorporation into CoQ10,[4],readily taken up by cells and incorporated into CoQ10
"CC(C)(O)c1ccccc1CC[C@@H](SCC1(CC(=O)O)CC1)c1cccc(/C=C/c2ccc3ccc(Cl)cc3n2)c1 [D00005 row 1, montelukast]",IC50,[5],> 100 µM
"NCCc1ccc(O)c(O)c1 [D00005 row 2, dopamine]",IC50,[5],41.3 µM
"C[C@](N)(Cc1ccc(O)c(O)c1)C(=O)O [D00005 row 3, methyldopa]",IC50,[5],> 100 µM
"CC(C)Cc1ccc(C(C)C(=O)O)cc1 (stereo not drawn) [D00005 row 4, ibuprofen]",IC50,[5],16.6 µM
CC(=O)Oc1ccccc1C(=O)O [aspirin],HPDL binding by thermal shift,[6],does not act HPDL binder
same,3D cell growth,[7],does not affect cell growth of HPDL-dependent cell lines
NCCc1ccc(O)c(O)c1 [dopamine],inhibition of HPDL activity,"[8]; 12 ng/μL HPDL, 10 μM HPPA, 1 h at 37° C., various inhibitor concentrations",inhibit the dioxygenase HPDL
same,compound amount at 50% activity level (rank among the four dose-response curves),[8],second least
CC(C)Cc1ccc(C(C)C(=O)O)cc1 (stereo not drawn) [ibuprofen],3D cell growth,[1]; ibuprofen 100 uM added daily,selectively decreases cell growth of HPDL-dependent cell lines in 3D
same,3D cell growth,[7],affects cell growth of HPDL-dependent cell lines in 3D
same,sensitivity of 3D growth to ibuprofen on HPDL deletion,[9],HPDL deletion reduces sensitivity to ibuprofen treatment in 3D
same,orthotopic pancreatic tumor growth (tumor weight),[2]; ibuprofen 100 mg/kg in drinking water,affects the growth of HPDL-dependent PDAC orthotopic xenografts
same,pup development and survival,"[3]; ibuprofen 200 mg/kg daily oral gavage, started at 3, 5 and 10 days",affects the development of pups; also recorded: ibuprofen-induced lethality in pups
same,compound amount at 50% activity level (rank among the four dose-response curves),[8],least
